Structures can show the parent of a compound that is named as a salt.
| melting point | SMILES |
| --- | --- |
| 80.5 °C | CN(c1nnc(C(F)(F)F)s1)C1CCN(Cc2cccc(F)c2)CC1 |
| 130.2 °C | Fc1cc(CN2CCC(Nc3nnc(C(F)(F)F)s3)CC2)ccc1C(F)(F)F |
| 85.8 °C | CN(c1nnc(C(F)(F)F)s1)C1CCN(Cc2ccc(F)cc2)CC1 |

The next lines start with the compound.

| SMILES | melting point |
| --- | --- |
| N#Cc1nnc(NC2CCN(Cc3cc(F)c(F)c(F)c3)CC2)s1 | 211.3 °C |
| FC(F)(F)Oc1cccc(CN2CCC(Nc3nnc(C(F)(F)F)s3)CC2)c1 | 116.3 °C |
| Fc1ccc(CN2CCC(Nc3nc(C(F)(F)F)cs3)CC2)cc1F (as salt: hydrochloride) | 238 °C |
| N#Cc1nnc(NC2CCN(Cc3ccc(F)c(F)c3)CC2)s1 | 199.4 °C |

Reference: patent US8933101B2, “Thia(dia)zoles as fast dissociating dopamine 2 receptor antagonists” (Janssen Pharmaceutica NV, priority 2007, dated 2015)
